# Source: ChEMBL document CHEMBL1201861, “Genomics of Drug Sensitity in Cancer screening data, Wellcome Trust Sanger Institute”
# How the values were obtained:
# Assay in all cases: cells
# Conditions in all cases: Homo sapiens
# JVM-2 = assay type: functional, cell-based;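 note: growth inhibition of JVM-2 cells determined by a cell viability assay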
# Description: SANGER: Inhibition of human JVM-2 cell growth in a cell viability assay.
# D283 Med = assay type: functional, cell-based
# Description: SANGER: Inhibition of human D-283MED cell growth in a cell viability assay.
# A4-Fuk = assay type: functional, cell-based;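 note: growth inhibition of A4-Fuk cells, read out by a cell viability assay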
# Description: SANGER: Inhibition of human A4-Fuk cell growth in a cell viability assay.
# NCI-H1770 = assay type: functional, cell-based;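 note: growth inhibition of NCI-H1770 cells determined with a viability readout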
# Description: SANGER: Inhibition of human NCI-H1770 cell growth in a cell viability assay.
# K5 = assay type: functional, cell-based
# Description: SANGER: Inhibition of human K5 cell growth in a cell viability assay.
# LU-134-A = assay type: functional, cell-based
# Description: SANGER: Inhibition of human LU-134-A cell growth in a cell viability assay.
# CW-2 = assay type: functional, cell-based;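 note: growth inhibition of CW-2 cells, read out by a cell viability assay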
# Description: SANGER: Inhibition of human CW-2 cell growth in a cell viability assay.
# HT-144 = assay type: functional, cell-based
# Description: SANGER: Inhibition of human HT-144 cell growth in a cell viability assay.
# A704 = assay type: functional, cell-based;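 note: growth inhibition of human A704 cells, read out with a cell viability assay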
# Description: SANGER: Inhibition of human A704 cell growth in a cell viability assay.
# LOX IMVI = assay type: functional, cell-based
# Description: SANGER: Inhibition of human LOXIMVI cell growth in a cell viability assay.
# KMOE-2 = assay type: functional, cell-based;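 note: growth inhibition of human KMOE-2 cells, read out with a cell viability assay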
# Description: SANGER: Inhibition of human KMOE-2 cell growth in a cell viability assay.
# TE-11 = assay type: functional, cell-based;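 note: growth inhibition of human TE-11 cells, read out by a cell viability assay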
# Description: SANGER: Inhibition of human TE-11 cell growth in a cell viability assay.
# RPMI-8866 = assay type: functional, cell-based
# Description: SANGER: Inhibition of human RPMI-8866 cell growth in a cell viability assay.
# NTERA-2-cl-D1 = assay type: functional, cell-based;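 note: inhibition of cell growth, measured with a cell viability assay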
# Description: SANGER: Inhibition of human NTERA-S-cl-D1 cell growth in a cell viability assay.
# DB = assay type: functional, cell-based
# Description: SANGER: Inhibition of human DB cell growth in a cell viability assay.
# Calu-6 = assay type: functional, cell-based;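 note: growth of human Calu-6 cells, read out by a cell viability assay, IC50 marking inhibition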
# Description: SANGER: Inhibition of human Calu-6 cell growth in a cell viability assay.
# SK-N-FI = assay type: functional, cell-based;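 note: cell viability assay measuring growth inhibition of human SK-N-FI cells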
# Description: SANGER: Inhibition of human SK-N-FI cell growth in a cell viability assay.
# MHH-PREB-1 = assay type: functional, cell-based;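 note: cell viability assay measuring inhibition of proliferation of human MHH-PREB-1 cells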
# Description: SANGER: Inhibition of human MHH-PREB-1 cell growth in a cell viability assay.
# L-363 = assay type: functional, cell-based
# Description: SANGER: Inhibition of human L-363 cell growth in a cell viability assay.
# MZ7-mel = assay type: functional, cell-based;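 note: growth inhibition of human MZ7-mel cells, measured by a cell viability assay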
# Description: SANGER: Inhibition of human MZ7-mel cell growth in a cell viability assay.
# UACC-257 = assay type: functional, cell-based
# Description: SANGER: Inhibition of human UACC-257 cell growth in a cell viability assay.
# OVCAR-4 = assay type: functional, cell-based;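 note: growth inhibition of human OVCAR-4 cells, measured with a cell viability assay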
# Description: SANGER: Inhibition of human OVCAR-4 cell growth in a cell viability assay.
# TE-10 = assay type: functional, cell-based;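 note: growth inhibition of TE-10 cells, measured by a cell viability assay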
# Description: SANGER: Inhibition of human TE-10 cell growth in a cell viability assay.
# GI-ME-N = assay type: functional, cell-based;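 note: growth inhibition of human GI-ME-N cells, read out with a cell viability assay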
# Description: SANGER: Inhibition of human GI-ME-N cell growth in a cell viability assay.
# ONS-76 = assay type: functional, cell-based;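 note: growth inhibition of human ONS-76 cells, read out with a cell viability assay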
# Description: SANGER: Inhibition of human ONS-76 cell growth in a cell viability assay.
# A3-KAW = assay type: functional, cell-based;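 note: growth inhibition of human A3-KAW cells, read out with a cell viability assay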
# Description: SANGER: Inhibition of human A3-KAW cell growth in a cell viability assay.
# HH = assay type: functional, cell-based
# Description: SANGER: Inhibition of human HH cell growth in a cell viability assay.
# DEL = assay type: functional, cell-based;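 note: growth inhibition of the human DEL cell line, read out with a cell viability assay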
# Description: SANGER: Inhibition of human DEL cell growth in a cell viability assay.
# IA-LM = assay type: functional, cell-based;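 note: cell viability assay measuring growth inhibition of human IA-LM cells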
# Description: SANGER: Inhibition of human IA-LM cell growth in a cell viability assay.
# ES5 = assay type: functional, cell-based;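 note: growth inhibition of human ES5 cells, read out by a cell viability assay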
# Description: SANGER: Inhibition of human ES5 cell growth in a cell viability assay.
# KARPAS-299 = assay type: functional, cell-based
# Description: SANGER: Inhibition of human KARPAS-299 cell growth in a cell viability assay.
# MV4-11 = assay type: functional, cell-based, MV-4-11;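 note: cell viability readout measuring growth inhibition of human MV-4-11 cells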
# Description: SANGER: Inhibition of human MV-4-11 cell growth in a cell viability assay.
# KARPAS-45 = assay type: functional, cell-based;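 note: inhibition of cell line growth, read out through a viability assay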
# Description: SANGER: Inhibition of human KARPAS-45 cell growth in a cell viability assay.
# SHP77 = assay type: functional, cell-based, SHP-77;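 note: growth inhibition of human SHP-77 cells measured by a cell viability assay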
# Description: SANGER: Inhibition of human SHP-77 cell growth in a cell viability assay.
# JAR = assay type: functional, cell-based;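 note: growth inhibition of human JAR cells determined with a cell viability assay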
# Description: SANGER: Inhibition of human JAR cell growth in a cell viability assay.
# GT3TKB = assay type: functional, cell-based;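 note: growth inhibition of the cell line, read out with a cell viability assay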
# Description: SANGER: Inhibition of human GT3TKB cell growth in a cell viability assay.
# ES3 = assay type: functional, cell-based;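 note: growth inhibition of ES3 cells, read out with a cell viability assay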
# Description: SANGER: Inhibition of human ES3 cell growth in a cell viability assay.
# NCI-H1581 = assay type: functional, cell-based;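 note: cell growth inhibition read out by a viability assay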
# Description: SANGER: Inhibition of human NCI-H1581 cell growth in a cell viability assay.
# KALS-1 = assay type: functional, cell-based;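 note: growth inhibition of KALS-1 cells, determined with a cell viability assay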
# Description: SANGER: Inhibition of human KALS-1 cell growth in a cell viability assay.
# ES8 = assay type: functional, cell-based;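 note: growth inhibition of human ES8 cells, read out with a cell viability assay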
# Description: SANGER: Inhibition of human ES8 cell growth in a cell viability assay.
# SK-PN-DW = assay type: functional, cell-based;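 note: growth inhibition measured with a viability assay on these cells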
# Description: SANGER: Inhibition of human SK-PN-DW cell growth in a cell viability assay.
# HL-60 = assay type: functional, cell-based;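 note: growth inhibition of human HL-60 cells, read out with a cell viability assay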
# Description: SANGER: Inhibition of human HL-60 cell growth in a cell viability assay.
# DOHH-2 = assay type: functional, cell-based;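 note: growth inhibition of human DOHH-2 cells, read out with a cell viability assay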
# Description: SANGER: Inhibition of human DOHH-2 cell growth in a cell viability assay.
# OCUB-M = assay type: functional, cell-based;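 note: growth inhibition of the cancer cell line, read out through a cell viability assay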
# Description: SANGER: Inhibition of human OCUB-M cell growth in a cell viability assay.
# EW-1 = assay type: functional, cell-based;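 note: growth inhibition of the human EW-1 cell line, read out by a cell viability assay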
# Description: SANGER: Inhibition of human EW-1 cell growth in a cell viability assay.
# LB2518-MEL = assay type: functional, cell-based;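 note: growth inhibition of human LB2518-MEL cells, measured with a cell viability assay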
# Description: SANGER: Inhibition of human LB2518-MEL cell growth in a cell viability assay.
# MEG-01 = assay type: functional, cell-based;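 note: growth inhibition of MEG-01 cells, read out by a cell viability assay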
# Description: SANGER: Inhibition of human MEG-01 cell growth in a cell viability assay.
# SNU1 = assay type: functional, cell-based;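 note: growth inhibition of human NCI-SNU-1 cells, measured with a cell viability assay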
# Description: SANGER: Inhibition of human NCI-SNU-1 cell growth in a cell viability assay.
# SBC-1 = assay type: functional, cell-based;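 note: cell viability assay measuring growth inhibition of the SBC-1 cell line, IC50 being the concentration that halves growth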
# Description: SANGER: Inhibition of human SBC-1 cell growth in a cell viability assay.
# QIMR-WIL = assay type: functional, cell-based;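 note: growth inhibition of QIMR-WIL cells, read out with a cell viability assay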
# Description: SANGER: Inhibition of human QIMR-WIL cell growth in a cell viability assay.
# GAK = assay type: functional, cell-based;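 note: cell growth inhibition read out by a cell viability assay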
# Description: SANGER: Inhibition of human GAK cell growth in a cell viability assay.
# KM12 = assay type: functional, cell-based;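 note: KM12 cell growth inhibition, read out with a cell viability assay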
# Description: SANGER: Inhibition of human KM12 cell growth in a cell viability assay.
# MOLT-4 = assay type: functional, cell-based;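 note: growth inhibition of MOLT-4 cells, determined with a cell viability readout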
# Description: SANGER: Inhibition of human MOLT-4 cell growth in a cell viability assay.
# NMC-G1 = assay type: functional, cell-based;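 note: growth inhibition of the NMC-G1 cell line, measured with a cell viability read-out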
# Description: SANGER: Inhibition of human NMC-G1 cell growth in a cell viability assay.
# IST-MES1 = assay type: functional, cell-based;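 note: growth inhibition of IST-MES1 cells, measured with a cell viability assay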
# Description: SANGER: Inhibition of human IST-MES1 cell growth in a cell viability assay.
# Lu-65 = assay type: functional, cell-based;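 note: growth inhibition of Lu-65 cancer cells, read out by a cell viability assay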
# Description: SANGER: Inhibition of human LU-65 cell growth in a cell viability assay.
# COR-L88 = assay type: functional, cell-based;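 note: growth inhibition of COR-L88 cells, read out with a cell viability assay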
# Description: SANGER: Inhibition of human COR-L88 cell growth in a cell viability assay.
# RXF 393 = assay type: functional, cell-based;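 note: growth inhibition of human RXF 393 cells, read out with a cell viability assay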
# Description: SANGER: Inhibition of human RXF393 cell growth in a cell viability assay.
# MLMA = assay type: functional, cell-based;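 note: growth inhibition of MLMA cells (human), determined through a cell viability readout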
# Description: SANGER: Inhibition of human MLMA cell growth in a cell viability assay.
# D-502MG = assay type: functional, cell-based
# Description: SANGER: Inhibition of human D-502MG cell growth in a cell viability assay.
# J-RT3-T3-5 = assay type: functional, cell-based;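 note: cell viability assay measuring growth inhibition of human J-RT3-T3-5 cells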
# Description: SANGER: Inhibition of human J-RT3-T3-5 cell growth in a cell viability assay.
# LAN-6 = assay type: functional, cell-based
# Description: SANGER: Inhibition of human LAN-6 cell growth in a cell viability assay.
# LC-2-ad = assay type: functional, cell-based
# Description: SANGER: Inhibition of human LC-2-ad cell growth in a cell viability assay.
# CP66-MEL = assay type: functional, cell-based
# Description: SANGER: Inhibition of human CP66-MEL cell growth in a cell viability assay.
# HuTu80 = assay type: functional, cell-based, HUTU-80
# Description: SANGER: Inhibition of human HUTU-80 cell growth in a cell viability assay.
# SW 962 = assay type: functional, cell-based
# Description: SANGER: Inhibition of human SW962 cell growth in a cell viability assay.
smiles,measurement,setting,value
CC[C@]1(O)C[C@@H]2CN(CCc3c([nH]c4ccccc34)[C@@](C(=O)OC)(c3cc4c(cc3OC)N(C)[C@H]3[C@@](O)(C(=O)OC)[C@H](OC(C)=O)[C@]5(CC)C=CCN6CC[C@]43[C@@H]65)C2)C1 [VINBLASTINE],IC50,JVM-2,> 100 nM
same,IC50,D283 Med,39.1 nM
same,IC50,A4-Fuk,1.87 nM
same,IC50,NCI-H1770,28.5 nM
same,IC50,K5,4.68 nM
same,IC50,LU-134-A,8.58 nM
same,IC50,CW-2,> 100 nM
same,IC50,HT-144,3.32 nM
same,IC50,A704,> 100 nM
same,IC50,LOX IMVI,6.98 nM
same,IC50,KMOE-2,20.8 nM
same,IC50,TE-11,5.13 nM
same,IC50,RPMI-8866,1.97 nM
same,IC50,NTERA-2-cl-D1,5.89 nM
same,IC50,DB,1.69 nM
same,IC50,Calu-6,> 100 nM
same,IC50,SK-N-FI,> 100 nM
same,IC50,MHH-PREB-1,1.49 nM
same,IC50,L-363,6 nM
same,IC50,MZ7-mel,11.1 nM
same,IC50,UACC-257,90.5 nM
same,IC50,OVCAR-4,27.9 nM
same,IC50,TE-10,21.5 nM
same,IC50,GI-ME-N,6.08 nM
same,IC50,ONS-76,3.74 nM
same,IC50,A3-KAW,4.32 nM
same,IC50,HH,6.37 nM
same,IC50,DEL,2.16 nM
same,IC50,IA-LM,68.6 nM
same,IC50,ES5,3.88 nM
same,IC50,KARPAS-299,> 100 nM
same,IC50,MV4-11,2.81 nM
same,IC50,KARPAS-45,1.79 nM
same,IC50,SHP77,> 100 nM
same,IC50,JAR,0.608 nM
same,IC50,GT3TKB,1.92 nM
same,IC50,ES3,2.77 nM
same,IC50,NCI-H1581,4.24 nM
same,IC50,KALS-1,7.79 nM
same,IC50,ES8,3.24 nM
same,IC50,SK-PN-DW,6.14 nM
same,IC50,HL-60,4.37 nM
same,IC50,DOHH-2,1.81 nM
same,IC50,OCUB-M,7.56 nM
same,IC50,EW-1,3.15 nM
same,IC50,LB2518-MEL,> 100 nM
same,IC50,MEG-01,14.7 nM
same,IC50,SNU1,1.62 nM
same,IC50,SBC-1,8.1 nM
same,IC50,QIMR-WIL,8.95 nM
same,IC50,GAK,> 100 nM
same,IC50,KM12,14.4 nM
same,IC50,MOLT-4,3.85 nM
same,IC50,NMC-G1,8.48 nM
same,IC50,IST-MES1,67.7 nM
same,IC50,Lu-65,> 100 nM
same,IC50,COR-L88,24.3 nM
same,IC50,RXF 393,1.44 nM
same,IC50,MLMA,4.65 nM
same,IC50,D-502MG,23.5 nM
same,IC50,J-RT3-T3-5,0.788 nM
same,IC50,LAN-6,47.7 nM
same,IC50,LC-2-ad,7.9 nM
same,IC50,CP66-MEL,48.6 nM
same,IC50,HuTu80,12.3 nM
same,IC50,SW 962,19.4 nM
